In ChEMBL document CHEMBL1156076, “Design and efficient synthesis of novel arylthiourea derivatives as potent hepatitis C virus inhibitors” (Bioorg Med Chem Lett, 2009):
pEC50: −log10 of the molar value.

Experiments:
Hepatitis C virus = assay: Antiviral activity against HCV 1b infected in human HuH7 cells assessed as inhibition of viral sub-genomic replication by EG(delta-4AB)SEAP reporter protein assay; type: functional, organism-based, Hepacivirus hominis; conditions: genotype 1b, Huh-7
[1] = Selectivity index, ratio of CC50 for human HuH7 cells to EC50 for HCV 1b; parameters: species or system Huh-7
[2] = Cytotoxicity against human HuH7 cells; type: cell-based, Huh-7

SMILES	pEC50 (Hepatitis C virus)	Ratio CC50/EC50 [1]	CC50 [2] [nM]
NC(=S)Nc1cccc(OCCCCCNC(=O)Nc2cccc3ccccc23)c1	5.86	>36	> 50000
NC(=S)Nc1cccc(OCCCCCN2CCN(c3ccc(Cl)cc3)C2=S)c1	6.59	>192	> 50000
CCCCCCn1c2ccccc2c2cc(NC(=S)NCCCCCCCCOc3cccc(NC(N)=S)c3)ccc21	7.44	>1389	> 50000
NC(=S)Nc1cccc(OCCCCCN2CCN(c3ccc(Cl)cc3)C2=O)c1	6.55	139	39000
NC(=S)Nc1cccc(OCCCCCCCCNC(=S)Nc2ccc(Br)cc2)c1	7.33	383	18000
NC(=S)Nc1cccc(OCCCCCN2CCN(c3cccc4ccccc34)C2=O)c1	6.24	26	15000
NC(=S)Nc1cccc(OCCCCCCCCNC(=S)Nc2ccc(C3CCCCC3)cc2)c1	7.15	>704	> 50000
NC(=S)Nc1cccc(OCCCCCc2ccccc2)c1	7.32	458	22000
NC(=S)Nc1cccc(OCCCCCNC(=S)Nc2cc(Cl)cc(Cl)c2)c1	6.75	102	18000
NC(=S)Nc1cccc(OCCCCCCCNC(=S)Nc2cc(Cl)cc(Cl)c2)c1	7.06	227	20000
NC(=S)Nc1cccc(OCCCCCN2CCN(c3ccccc3-c3ccccc3)C2=O)c1	6.40	30	12000
CCn1c2ccccc2c2cc(NC(=S)NCCCCCCCCOc3cccc(NC(N)=S)c3)ccc21	7.27	>926	> 50000
Cc1cc(C)cc(-n2c3ccccc3c3cc(NC(=S)NCCCCCCCCOc4cccc(NC(N)=S)c4)ccc32)c1	7.36	>1136	> 50000
NC(=S)Nc1cccc(OCCCCCN2CCN(c3ccc(Oc4ccccc4)cc3)C2=O)c1	4.57	>2	> 50000
NC(=S)Nc1cccc(OCCCCCCCCNC(=S)Nc2ccc3c(c2)CCC3)c1	7.10	425	34000
CCCCn1c2ccccc2c2cc(NC(=S)NCCCCCCCCOc3cccc(NC(N)=S)c3)ccc21	7.35	>1111	> 50000
NC(=S)Nc1cccc(OCCCCCNC(=S)Nc2ccc(Cl)cc2)c1	6.29	>98	> 50000
CCCn1c2ccccc2c2cc(NC(=S)NCCCCCCCCOc3cccc(NC(N)=S)c3)ccc21	7.32	>1042	> 50000
NC(=S)Nc1cccc(OCCCCCCCCNC(=S)Nc2ccc3c(c2)Cc2ccccc2-3)c1	6.93	212	25000
CC(C)(C)c1ccc(NC(=S)NCCCCCCCCOc2cccc(NC(N)=S)c2)cc1	7.22	283	17000
NC(=S)Nc1cccc(OCCCCCCCCNC(=S)Nc2ccc3c(c2)c2ccccc2n3Cc2ccccc2)c1	7.44	>1389	> 50000
NC(=S)Nc1cccc(OCCCCCCCCNC(=S)Nc2cc(Cl)cc(Cl)c2)c1	7.47	353	12000
NC(=S)Nc1cccc(OCCCCCCCCNC(=S)Nc2ccc(N3CCOCC3)cc2)c1	6.50	>158	> 50000
Cc1ccc(OCCCCCNC(=S)Nc2cccc3ccccc23)cc1NC(N)=S	5.99	>49	> 50000

SMILES	pEC50 (Hepatitis C virus)	Ratio CC50/EC50 [1]	CC50 [2] [nM]
NC(=S)Nc1cccc(OCCCCCN2CCCCN(c3ccc(Cl)cc3)C2=O)c1	6.60	52	13000
NC(=S)Nc1cccc(OCCCCCN2CCN(c3ccc(C4CCCCC4)cc3)C2=O)c1	6.54	41	12000
NC(=S)Nc1cccc(OCCCCCN2CCN(c3ccccc3-c3ccccc3)C2=S)c1	6.63	>214	> 50000
Cc1c(NC(N)=S)cccc1OCCCCCNC(=S)Nc1cccc2ccccc12	< 4.30	>1	> 50000
NC(=S)Nc1cccc(OCCCCCN2CCN(c3ccc(Cl)c(Cl)c3)C2=O)c1	6.68	62	13000
NC(=S)Nc1cccc(OCCCCCCCCNC(=S)Nc2ccc3c(c2)C(=O)c2ccccc2-3)c1	7.28	>943	> 50000
NC(=S)Nc1cccc(OCCCCCN2CCN(c3ccc(Cl)c(Cl)c3)C2=S)c1	6.70	>250	> 50000
Cn1c2ccccc2c2cc(NC(=S)NCCCCCCCCOc3cccc(NC(N)=S)c3)ccc21	7.10	>625	> 50000
NC(=S)Nc1cccc(OCCCCCCCCNC(=S)Nc2cccc(Br)c2)c1	7.03	215	20000
NC(=S)Nc1cccc(OCCCCCCNC(=S)Nc2cc(Cl)cc(Cl)c2)c1	6.91	172	21000
NC(=S)Nc1cccc(OCCCCCCCCNC(=S)Nc2ccccc2Br)c1	6.88	275	36000
NC(=S)Nc1cccc(OCCCCCCCCNC(=S)Nc2ccccc2)c1	6.96	>459	> 50000
NC(=S)Nc1cccc(OCCCCCN2CCN(c3ccc(C4CCCCC4)cc3)C2=S)c1	6.78	>299	> 50000
NC(=S)Nc1cccc(OCCCCCN2CCCN(c3ccc(Cl)cc3)C2=O)c1	5.82	10	15000
CCCCCn1c2ccccc2c2cc(NC(=S)NCCCCCCCCOc3cccc(NC(N)=S)c3)ccc21	7.38	>1190	> 50000
NC(=S)Nc1cccc(OCCCCCCCCNC(=S)Nc2ccc3c(c2)c2ccccc2n3CCc2ccccc2)c1	7.48	>1515	> 50000
NC(=S)Nc1cccc(OCCCCCCCCNC(=S)Nc2ccc3[nH]ccc3c2)c1	6.83	122	18000
NC(=S)Nc1cccc(OCCCCCCCCNC(=S)Nc2ccc3[nH]c4ccccc4c3c2)c1	7.05	>562	> 50000
NC(=S)Nc1cccc(OCCCCCCCCNC(=S)Nc2ccc(Cl)cc2)c1	7.21	290	18000
NC(=S)Nc1cccc(OCCCCCCCCNC(=S)Nc2ccc3c(c2)c2ccccc2n3-c2ccccc2)c1	7.02	>521	> 50000
Cc1ccc(-n2c3ccccc3c3cc(NC(=S)NCCCCCCCCOc4cccc(NC(N)=S)c4)ccc32)cc1	7.51	>1612	> 50000
NC(=S)Nc1cccc(OCCCCCNC(=S)Nc2cccc3ccccc23)c1	6.35	>111	> 50000
NC(=S)Nc1cccc(OCCCCCN2CCN(c3cccnc3)C2=O)c1	< 4.30	>1	> 50000
